From patent US10646466B2, “Uses of gallocatechin” (TCI CO., LTD., priority 2017, dated 2020)

What was measured:
Assay type in all cases: cell-based
Conditions in all cases: 0.0625 μg/ml, 24 hours, control set as 1-fold
AANAT gene = assay: qPCR expression level of AANAT gene in SHSY5Y cells
Method: (§1) SHSYSY cells were seeded in a 6-well plate (1×10^5 cells/well) and then cultured for 24 hours. Thereafter, cells were divided into the control group and experimental group and were separately cultured in the following medium for 24 hours: • 1. Control group: DMEM medium; • 2. Experimental group: a medium the same as that of the control group, but additionally added with 0.0625 μg/ml of the compound of formula (I). Thereafter, cells of the above groups were harvested and subjected to an RNA extraction with an RNA Extract Kit. The RNA thus obtained was then transcribed into cDNA by using a Reverse Transcriptase. Thereafter, the cDNA was subjected to a quantitative polymerase chain reaction (qPCR) by using a Step One Plus system and a KAPA SYBR FAST qPCR kit to determine the expression levels of genes related to melatonin (including TPH1, DDC, AANAT and ASMTL) in the cells of each group. The above experimental steps were repeated three times, and then the results of the three experiments were averaged. Thereafter, the result of the control group was used as a basis (i.e., the gene expression level of the control group was set as 1-fold) to calculate the relative gene expression level of the experimental group.

TPH1 gene = assay: qPCR expression level of TPH1 gene in SHSY5Y cells
Method: as §1

DDC gene = assay: qPCR expression level of DDC gene in SHSY5Y cells
Method: as §1

ASMTL gene = assay: qPCR expression level of ASMTL gene in SHSY5Y cells
Method: as §1

Oc1cc(O)c2c(c1)O[C@H](c1cc(O)c(O)c(O)c1)[C@@H](O)C2 [compound of formula (I), gallocatechin]
significantly increased: relative expression level of AANAT gene as compared to the control group (AANAT gene) | relative expression level of TPH1 gene as compared to the control group (TPH1 gene) | relative expression level of DDC gene as compared to the control group (DDC gene) | relative expression level of ASMTL gene as compared to the control group (ASMTL gene)
